Data from patent US6514967B1 (priority 1997, dated 2003).
Where two headings read alike, the source gives them in different places.

Experiments:
[1] = Chemical test of capture of OH• radicals (deoxyribose competition); type: biochemical; details: rate constant of reaction of the competitor with OH•, competition with 2-deoxyribose, UV at 532 nm
Protocol: A) Chemical test of capture of OH^• radicals:
(Free Rad. Res. Comms., Vol. 14, Nos. 5-6, pp. 363-372)
[…] of buffer (30 mM Na2HPO4.7H2O, 40 mM NaCl, 0.1 mM EDTA), 125 ml of deoxyribose at 2.10^−3 mM and 125 ml of 4-times concentrated solution of radical inhibitor (final concentration from 0 to 0.5 mM) were placed in glass haemolysis tubes cooled on an ice bath. […] of FeSO4 at 10^−3 mM (in water) is added at time 0. After 15 min of incubation the reaction is stopped with 250 ml of trichloroacetic acid at 3%, to which is added 250 ml of solution of thiobarbituric acid at 1.5% (in water). The tubes are kept at 100° C. for 10 min then cooled for detection with UV at 532 nm. The linear relation A0/A=1+ks/dkr [(competitor)/(2-deoxyribose)] was used, where A0 and A denote the absorbances in the absence and in the presence of competitor, ks is the rate constant of reaction of the competitor with OH• and kdr=1.9*10^9 M^−1 sec^−1 is the rate constant of reaction of 2-deoxyribose with OH•. Thus ks is equal to the gradient of the straight line A0/A f((competitor)/(2-deoxyribose)) multiplied by kdr.

[2] = target: xanthine oxidase (Homo sapiens, UniProt P47989); assay: Action of the derivatives on xanthine oxidase; type: biochemical; details: for inhibition at 100 µM: read-out: % inhibition 100 μM; for inhibition at 500 µM: read-out: % inhibition 500 μM
xanthine oxidase, sequence (P47989 whole entry, species assumed): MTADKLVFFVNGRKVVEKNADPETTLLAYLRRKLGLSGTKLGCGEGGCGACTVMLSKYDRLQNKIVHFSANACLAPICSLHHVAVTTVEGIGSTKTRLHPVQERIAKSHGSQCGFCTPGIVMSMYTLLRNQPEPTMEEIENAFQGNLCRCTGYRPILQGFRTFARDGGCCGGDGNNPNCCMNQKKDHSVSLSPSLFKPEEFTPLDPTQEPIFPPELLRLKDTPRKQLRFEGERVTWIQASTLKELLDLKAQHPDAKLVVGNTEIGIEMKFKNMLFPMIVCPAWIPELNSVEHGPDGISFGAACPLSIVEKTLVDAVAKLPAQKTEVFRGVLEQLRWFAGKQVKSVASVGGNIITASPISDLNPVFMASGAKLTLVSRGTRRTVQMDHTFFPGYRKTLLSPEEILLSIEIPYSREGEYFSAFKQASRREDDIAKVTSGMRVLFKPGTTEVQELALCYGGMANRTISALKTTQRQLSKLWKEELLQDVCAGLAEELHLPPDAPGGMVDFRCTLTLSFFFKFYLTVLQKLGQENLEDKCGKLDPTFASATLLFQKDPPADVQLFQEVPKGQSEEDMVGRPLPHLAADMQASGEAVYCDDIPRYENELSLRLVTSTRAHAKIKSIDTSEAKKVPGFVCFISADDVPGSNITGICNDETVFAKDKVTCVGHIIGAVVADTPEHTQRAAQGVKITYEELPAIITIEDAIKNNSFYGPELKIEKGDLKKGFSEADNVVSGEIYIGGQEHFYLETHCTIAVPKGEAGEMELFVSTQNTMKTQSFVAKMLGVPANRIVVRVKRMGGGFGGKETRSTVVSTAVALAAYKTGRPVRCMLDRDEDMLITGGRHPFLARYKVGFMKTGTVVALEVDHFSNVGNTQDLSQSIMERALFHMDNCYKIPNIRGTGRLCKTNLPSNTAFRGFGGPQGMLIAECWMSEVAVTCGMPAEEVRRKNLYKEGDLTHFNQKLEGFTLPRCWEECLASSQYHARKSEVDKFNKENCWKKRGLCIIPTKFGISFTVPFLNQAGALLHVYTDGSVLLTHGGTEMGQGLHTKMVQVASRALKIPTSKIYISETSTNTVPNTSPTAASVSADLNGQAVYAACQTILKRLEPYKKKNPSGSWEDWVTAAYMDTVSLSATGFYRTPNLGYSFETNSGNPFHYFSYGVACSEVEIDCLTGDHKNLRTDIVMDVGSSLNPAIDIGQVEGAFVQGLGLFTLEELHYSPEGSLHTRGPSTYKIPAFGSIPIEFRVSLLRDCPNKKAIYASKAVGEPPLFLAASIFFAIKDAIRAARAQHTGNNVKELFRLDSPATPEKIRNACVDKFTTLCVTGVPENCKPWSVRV
Protocol: Action of the derivatives on xanthine oxidase:
(Free Radical Biology & Medicine, Vol 20, No 1, pp.35-43, 1996)
[…] of xanthine 20 mM in soda 0.1N and […] of the test product in phosphate buffer at pH 7.4 were placed in a final volume of 2 ml. Reaction is started by adding […] of solution of xanthine oxidase at 0.56 U/ml. Formation of […] is monitored by UV spectroscopy at 290 nm. Allopurinol is a reference inhibitor.

[3] = system: astrocytes; assay: Recapture of glutamate by cultures of astrocytes, radicals generated by xanthine/xanthine oxidase (X/XO); type: cell-based, rats
Protocol: B) Procedure with cultures of astrocytes and generation of radicals by the xanthine/xanthine oxidase (X/XO) pair
400 μl of D-lysine at 25 μg/ml (9 ml of D-lysine at 100 μg per ml of borate buffer (0.1M pH 8.4)+27 ml of water) is placed in each well of 24-well culture plates. The wells are left in the stove (5% CO2, 37° C.) over night. Each well is rinsed with 2 times 750 μl of Hanks before receiving the culture medium. 3 lateral demi cortices are taken from rats aged 1 to 2 days. (The hippocampus, the striatum and the meninges are removed). The demi cortices are placed in 2 ml of trypsin-EDTA then put in the stove for 30 min. The action of the trypsin is stopped with 10% of decomplemented foetal calf serum (200 μl). The serum and the trypsin are removed then the cells are dissociated with a pipette in 10 ml of medium (MEM 225 ml+FCS-D 25 ml+glucose 20% 7.5 ml) (MEM=minimum essential medium; FCS-D=decomplemented foetal calf serum). The culture medium is made up to 30 ml, stirred and placed at 400 μl per well. The medium is changed twice weekly for 18 days. The last replacement is effected 4 days prior to the treatment, with a medium without decomplemented foetal calf serum. (MEM 31.5 ml+glucose 20% 1.05 ml).
Treatment takes place on the 18th or 19th day.
Each well is washed with 750 μl of buffer (NaCl 124 mM, KCl 4.6 mM, CaCl2 1.2 mM, MgCl2 1.3 mM, KH2PO4 0.416 mM, NaHCO3 26.75 mM, glucose 10 mM; pH 7.4) for 10 min. The cells are incubated in the presence of xanthine (500 μM) and of the test product (from 0 to 1 mM). After 10 min, xanthine oxidase is added (50 mU/ml) and it is again left to incubate for 10 min. Release of radicals is stopped by washing 3 times with catalase (3000 U/ml). The glutamate is then recaptured in a solution of radioactive glutamate (^3H) at 40 μM (isotopic dilution 1/20000). Recapture is stopped by washing 3 times with the cold buffer. The cells are detached with soda 0.2N and the radioactivity is measured.
Firstly we checked that the inhibition of recapture observed in the presence of X/XO is indeed due to a radical process. For this we replaced the test products with two enzymes: SOD (SuperOxide Dismutase) and catalase (FIG. 1). […] The Fenton reaction converting hydrogen peroxide to OH• is thus short-circuited. […] However, as there seems to be sufficient reducing agent in the medium to promote the formation of H2O2 starting from O2^•^−, it appears likely that a substantial proportion of H2O2 gives OH• (a highly reactive radical).
FIGS. 3 to 8 are the mean of at least 4 independent tests in which the protective power of IC180, IC023, IC241, IC2-16, IC178, IC140, IC209, IC237, IC146, IC193, IC194, IC242, IC207, IC2-19, IC219, IC2-21, and IC249, as a function of the dose, was tested against a fixed concentration of radicals, and therefore of X/XO. In the case of IC180, the increase in recapture appears to be linear (up to 100% is found in some tests). […] Since IC023 alone only becomes “toxic” starting from 1 mM, the variation observed starting from 0.6 mM might reflect the existence of metabolites that are poorly tolerated by the cells. The derivative morpholine IC180 is more interesting.

[4] = product at 100 μM, UV at 290 nm
[5] = product at 500 μM, UV at 290 nm

Compound: Cl.c1cc2c(s1)C(N1CCOCC1)CCC2 (stereo not drawn) [IC2-16]
- ks (10^−9M^−1 sec^−1) (±SEM) [1]: 3.33 ± 0.15 10^−9M^−1 sec^−1

Compound: Oc1ncnc2[nH]ncc12 [Allopurinol, reference compound]
- inhibition at 100 µM [2]: 92%
- inhibition at 500 µM [2]: 90%

Compound: catalase
- recapture of glutamate with enzyme in place of test product (in words) ([3]; in presence of X/XO, control, FIG. 1): allows a normal degree of recapture to be attained

Compound: CN1CCN(C2CCCc3sccc32)CC1 (stereo not drawn) [IC194, N-methyl-piperazine-4-tetrahydro-4,5,6,7-benzothiophene]
- ks (10^−9M^−1 sec^−1) (±SEM) [1]: 3.50 ± 0.23 10^−9M^−1 sec^−1
- inhibition at 100 µM [2, 4]: -15%
- inhibition at 500 µM [2, 5]: 10%

Compound: O=C[C@@H](O)[C@@H](O)[C@H](O)[C@H](O)CO [D-mannose, reference compound]
- ks (10^−9M^−1 sec^−1) (±SEM) [1]: 0.94±0.06 10^−9M^−1 sec^−1

Compound: Cl.NC1CCCc2ccsc21 (stereo not drawn) [IC178, amino-7-tetrahydro-4,5,6,7-benzothiophene]
- ks (10^−9M^−1 sec^−1) (±SEM) [1]: 2.76 ± 0.06 10^−9M^−1 sec^−1

Compound: Cl.c1cc2c(s1)SCCC2N1CCCCC1 (stereo not drawn) [IC237, piperidino-4-tetrahydro-4,5,6,7-thio-7-benzothiophene]
- ks (10^−9M^−1 sec^−1) (±SEM) [1]: 3.45 ± 0.19 10^−9M^−1 sec^−1
- inhibition at 100 µM [2]: -9%
- inhibition at 500 µM [2]: -8%

Compound: Cl.NC1CCCc2sccc21 (stereo not drawn) [IC088, amino-4-tetrahydro-4,5,6,7-benzothiophene]
- ks (10^−9M^−1 sec^−1) (±SEM) [1]: 3.37 ± 0.25 10^−9M^−1 sec^−1
- inhibition at 100 µM [2, 4]: -15%

Compound: CN1CCN(C2CCSc3sccc32)CC1 (stereo not drawn) [IC242, (N-methyl piperazine)-4-tetrahydro-4,5,6,7-thio-7-benzothiophene]
- ks (10^−9M^−1 sec^−1) (±SEM) [1]: 3.00 ± 0.19 10^−9M^−1 sec^−1

Compound: c1cc2c(s1)CCCC2N1CCCCC1 (stereo not drawn) [IC023, piperidino-4-tetrahydro-4,5,6,7-benzothiophene]
- ks (10^−9M^−1 sec^−1) (±SEM) [1]: 3.61 ± 0.16 10^−9M^−1 sec^−1
- % recapture from which the opposite effect is observed ([3]; fixed concentration of X/XO): ≥ 15%
- concentration from which the variation (opposite effect) is observed ([3]; in presence of X/XO): ≥ 0.6 mM
- concentration from which the product alone becomes "toxic" ([3]; product alone, astrocytes): ≥ 1000 µM
- inhibition at 100 µM [2]: -6%

Compound: Cl.c1cc2c(s1)SCCC2N1CCOCC1 (stereo not drawn) [IC241, morpholine-4 tetrahydro-4,5,6,7-thio-7-benzothiophene]
- ks (10^−9M^−1 sec^−1) (±SEM) [1]: 3.01 ± 0.14 10^−9M^−1 sec^−1
- inhibition at 100 µM [2, 4]: 7%
- inhibition at 500 µM [2, 5]: -8%

Compound: Cl.OC1CCN(C2CCCc3sccc32)CC1 (stereo not drawn) [IC209, (4 hydroxy-piperidine)-4-tetrahydro-4,5,6,7-benzothiophene]
- ks (10^−9M^−1 sec^−1) (±SEM) [1]: 3.27 ± 0.50 10^−9M^−1 sec^−1

Compound: Cl.c1cc2c(s1)CCCC2N1CCSCC1 (stereo not drawn) [IC193, thiomorpholine-4-tetrahydro-4,5,6,7-benzothiophene]
- ks (10^−9M^−1 sec^−1) (±SEM) [1]: 3.41 ± 0.25 10^−9M^−1 sec^−1
- inhibition at 100 µM [2, 4]: -7%
- inhibition at 500 µM [2, 5]: -2%

Compound: O=C(O)c1ccccc1O [ac.salicyl., salicylic acid, reference compound]
- ks (10^−9M^−1 sec^−1) (±SEM) [1]: 3.02 ± 0.18 10^−9M^−1 sec^−1
- ks (10^−9M^−1 sec^−1) (±SEM) ([1]; listed as salicylic acid): 3.02±0.18 10^−9M^−1 sec^−1

Compound: O=C1O[C@H]([C@@H](O)CO)C(O)=C1O [vitamin C, reference compound]
- ks (10^−9M^−1 sec^−1) (±SEM) [1]: 1.87±0.17 10^−9M^−1 sec^−1
